Assay results reported in patent US20120309699A1, “COMPOUNDS HAVING ANTI-INFLAMMATORY ACTIVITY” (Consejo Superior de Investigaciones Cientificas (CSIC), priority 2009, published 2012).

Tests used:
Salmonella = test: Adhesion of Salmonella to Caco-2 cells; format: cell-based, human; details: Caco-2, 25 μM/well; in comparison with resveratrol and the other derivatives
Method: (§1) We used two cell models for colon cancer to evaluate the anti-adhesion capacity of compounds derived from resveratrol against pathogenic bacteria in food: Caco-2 (a model frequently used to measure the adhesion of microorganisms) and HT-29 (a model frequently used to measure immune response to infections by enteropathogens). Caco-2 and HT-29 cells were grown in EMEM and DMEM respectively, for which 24 well plates were used at 37° C., 5% CO2, 95% air until a single layer of confluent epithelium formed (cell concentration per well 2×10^5 and 6×10^5 respectively). Pathogenic bacteria (E. coli O157, Salmonella and Listeria monocytogenes Scott A) were placed in contact with the various compounds derived from resveratrol for 1 hour and subsequently the bacteria together with the different compounds in a concentration of 25 μM/well were inoculated on the cell cultures, incubating the plates for 2 hours at 37° C., 5% CO2, 95% air. The plates were then washed 3 times with 1 ml of sterile PBS and 1 ml of distilled water with 20% of glycerol was added, and they were frozen at −70° C. to lyse the epithelial cells. […] Concentrations of the various derivatives tested were detected in the digestive tracts of experimental animals and therefore the test lay within the range of physiologically achievable concentrations.

Myeloperoxidase (MPO) = test: Myeloperoxidase activity in colonic mucosa (DSS model); format: in vivo, mice; details: after DSS; HED 10 mg
Method: (§2) A model for intestinal inflammation based on the administration of DSS (sodium dextran sulfate) to C57BL/6 mice was used. At the present time there is no consensus about which overall is the best model for experimental colitis. The DSS model has been widely used because it has clinical, morphological and analytical characteristics which up to a point are similar to those specific to patients with ulcerative colitis or Crohn's disease.
(§3) The in vivo inflammation test was carried out using duplicates separated by a number of months. In each test each group of animals (n=8) was fed a standard diet supplemented with 2.3 mg/day/kg (animal weight) of each of the compounds, depending upon the group. […]
(§4) • Monitoring of weight, food and drink ingestion. The mice in all groups were individually monitored, with weight, quantity of food ingested and water drunk each day being monitored throughout the experimental test. • Blood and water in feces. The water content of feces, as an indication of diarrhea, was evaluated using the difference in weight following evaporation in a stove. Blood was measured using reactive strips based on the guaiacol-peroxidase reaction (HealthCare Diagnosis Inc.). […] The reaction was measured using a scale from 0 (negative result) to 4 (most intense color change). • Length of colon. After sacrifice the colon was obtained from each mouse, extended and measured. […]

[1] = system: Listeria monocytogenes Scott A; test: Adhesion of L. monocytogenes to Caco-2 cells; format: cell-based, human; details: Caco-2, 25 μM/well; in comparison with resveratrol and the other derivatives
Method: as §1

bifidobacteria = test: Microbiota counts in feces: bifidobacteria; format: in vivo, mice; details: after administration of DSS; HED 10 mg
Method: as §2
(§5) The in vivo inflammation test was carried out using duplicates separated by a number of months. In each test each group of animals (n=8) was fed a standard diet supplemented with 2.3 mg/day/kg (animal weight) of each of the compounds, depending upon the group. This dose assumes the ingestion of 0.05 mg/day (50 μg/day) per mouse (having a mean weight of 22 grams). This dose extrapolated to a human being is equivalent to 10 mg in an adult weighing 70 kg; using the formula HED (human equivalent dose)=animal dose in mg/kg×(animal weight kg/human weight in kg)^0.33.
(§6) In each test the mice were fed for 3 weeks during which 1% DSS was included in their drink. The DSS was maintained for 8 days (and the same food as from the start). Then the DSS was withdrawn and the animals were allowed to recover for another 6 days (again with the same food).
(§7) • Monitoring of weight, food and drink ingestion. The mice in all groups were individually monitored, with weight, quantity of food ingested and water drunk each day being monitored throughout the experimental test. • Blood and water in feces. The water content of feces, as an indication of diarrhea, was evaluated using the difference in weight following evaporation in a stove. Blood was measured using reactive strips based on the guaiacol-peroxidase reaction (HealthCare Diagnosis Inc.). […] The reaction was measured using a scale from 0 (negative result) to 4 (most intense color change). • Length of colon. After sacrifice the colon was obtained from each mouse, extended and measured. […] This was evaluated by spectrophotometry at 460 nm using O-dianisidine reagent and hydrogen peroxide. The change in absorbance at 460 nm was monitored over 10 minutes in a V-630 spectrophotometer (Jasco, Tokyo, Japan). MPO activity was expressed as mU of activity/mg of fresh tissue, comparing the increase in absorbance with a standard straight line obtained using leukocyte myeloperoxidase (Sigma). • Prostaglandins in colonic mucosa. Levels of PGE2 were measured in colonic mucosa homogenates using an immunoenzyme method using a Cayman Chem. kit (USA). • “Antibody array”. […] The signal was detected by chemoluminescence. […] Signal intensities (densitometry) were analyzed using ScanAlyze software. […] The changes in cytokine levels were expressed as mean±SD in arbitrary density units. […]

haptoglobin = test: Systemic inflammation marker haptoglobin (DSS model); format: in vivo, mice; details: vs DSS group; HED 10 mg
Method: as §2, §5, §6, §7

E. coli = test: Microbiota counts in feces: E. coli; format: in vivo, mice; details: after administration of DSS; HED 10 mg
Method: as §2
as §5, with “kg)^0.33. […]” for “kg)^0.33.”
• Monitoring of weight, food and drink ingestion. The mice in all groups were individually monitored, with weight, quantity of food ingested and water drunk each day being monitored throughout the experimental test. • Blood and water in feces. The water content of feces, as an indication of diarrhea, was evaluated using the difference in weight following evaporation in a stove. Blood was measured using reactive strips based on the guaiacol-peroxidase reaction (HealthCare Diagnosis Inc.). […] The reaction was measured using a scale from 0 (negative result) to 4 (most intense color change). • Length of colon. After sacrifice the colon was obtained from each mouse, extended and measured. […] This was evaluated by spectrophotometry at 460 nm using O-dianisidine reagent and hydrogen peroxide. The change in absorbance at 460 nm was monitored over 10 minutes in a V-630 spectrophotometer (Jasco, Tokyo, Japan). […] Levels of PGE2 were measured in colonic mucosa homogenates using an immunoenzyme method using a Cayman Chem. kit (USA). • “Antibody array”. […] The signal was detected by chemoluminescence. […]

[2] = system: TNFR1 (Tumor necrosis factor receptor, CD120a); test: Antibody array in colonic mucosa: TNFR1 (DSS model); format: in vivo, mice; details: after 8 days DSS, without recovery period; HED 10 mg
Method: as §2, §3, §4

## CCCCCCCC(=O)OCC1OC(Oc2cc(O)cc(/C=C/c3ccc(O)cc3)c2)C(O)C(O)C1O [OCT, trans-resveratrol-3-O-(6′-O-octanoyl)-β-D-glucopyranoside]
Salmonella
  Anti-adhesion efficacy in respect of Salmonella: greater anti-adhesion efficacy
Myeloperoxidase (MPO)
  Myeloperoxidase activity in colonic mucosa: most obvious fall
[1]
  Anti-adhesion efficacy in respect of L. monocytogenes: greater anti-adhesion efficacy
bifidobacteria
  Bifidobacteria count in feces: continued the upward trend
haptoglobin
  Blood haptoglobin levels: most notable differences
E. coli
  E. coli count in feces: clear reduction
[2]
  Level of TNFR1 in colonic mucosa: values are similar to those for the control mice

## CCCC(=O)OCC1OC(Oc2cc(O)cc(/C=C/c3ccc(O)cc3)c2)C(O)C(O)C1O [BUT, trans-resveratrol-3-O-(6′-O-butanoyl)-β-D-glucopyranoside]
Salmonella
  Anti-adhesion efficacy in respect of Salmonella: greater anti-adhesion efficacy
Myeloperoxidase (MPO)
  Myeloperoxidase activity in colonic mucosa: most obvious fall
[1]
  Anti-adhesion efficacy in respect of L. monocytogenes: greater anti-adhesion efficacy
bifidobacteria
  Bifidobacteria count in feces: continued the upward trend
haptoglobin
  Blood haptoglobin levels: most notable differences
E. coli
  E. coli count in feces: clear reduction
[2]
  Level of TNFR1 in colonic mucosa: values are similar to those for the control mice
